Patent US20070275960A1, “Phenyl and pyridyl compounds for inflammation and immune-related uses” (Synta Pharmaceuticals Corp., priority 2006, published 2007)

Tested on: IL-2 production
Experiment: Inhibition of IL-2 production in PHA-activated Jurkat cells (ELISA)
Type: cell-based
Conditions: Homo sapiens, Jurkat, 20 h, PHA 2.5 μg/mL, 20 hours at 37° C., IL-2 by ELISA
Experimental: Jurkat cells were placed in a 96 well plate (0.5 million cells per well in 1% FBS medium) then a test compound of this invention was added at different concentrations. After 10 minutes, the cells were activated with PHA (final concentration 2.5 μg/mL) and incubated for 20 hours at 37° C. under CO2. The final volume was 200 μL. Following incubation, the cells were centrifuged and the supernatants collected and stored at −70° C. prior to assaying for IL-2 production. A commercial ELISA kit (IL-2 Eli-pair, Diaclone Research, Besancon, France) was used to detect production of IL-2, from which dose response curves were obtained. The IC50 value was calculated as the concentration at which 50% of maximum IL-2 production after stimulation was inhibited versus a non-stimulation control.

Structure (SMILES)	IC50
Cc1cnccc1C(=O)Nc1ccc(-c2sc(-c3cnco3)cc2Cl)cc1 [Compound 112, 3-Methyl-N-[4-(3-chloro-5-oxazol-5-yl-thiophen-2-yl)-phenyl]-isonicotinamide]	6.7 nM
CCOC(=O)c1nc(-c2ccc(NC(=O)c3c(F)cccc3F)cc2)c(C)s1 [Compound 123, 2,6-Difluoro-N-[4-(5-methyl-2-ethoxycarbonyl-thiazol-4-yl)-phenyl]-benzamide]	123 nM
Cc1cc(-c2cnco2)sc1-c1ccc(NC(=O)Nc2c(F)cccc2F)cc1 [Compound 126, 1-(2,6-difluoro-phenyl)-3-[4-(5-oxazol-5-yl-3-methyl-thiophen-2-yl)-phenyl]-urea]	2.4 nM
Cc1cnccc1C(=O)Nc1ccc(-c2sc(-c3ncco3)cc2C)cc1 [Compound 93, 3-Methyl-N-[4-(3-methyl-5-oxazol-2-yl-thiophen-2-yl)-phenyl]-isonicotinamide]	3 nM
Cc1cnccc1C(=O)Nc1ccc(-c2sc(-c3nccs3)cc2C)cc1 [Compound 111, 3-Methyl-N-[4-(3-methyl-5-thiazol-2-yl-thiophen-2-yl)-phenyl]-isonicotinamide]	8.7 nM
O=C(Nc1ccc(-c2sc(-c3ccno3)cc2Cl)cc1)c1ccncc1F [Compound 114, 3-Fluoro-N-[4-(3-chloro-5-isoxazol-5-yl-thiophen-2-yl)-phenyl]-isonicotinamide]	11 nM
Cc1cnccc1C(=O)Nc1ccc(-c2sc(-c3cccnc3)cc2C)cc1 [Compound 96, 3-Methyl-N-[4-(3-methyl-5-pyridin-3-yl-thiophen-2-yl)-phenyl]-isonicotinamide]	2.1 nM
Cc1cnccc1C(=O)Nc1ccc(-c2sc(-c3ccno3)cc2C)cc1 [Compound 94, 3-Methyl-N-[4-(3-methyl-5-isoxazol-5-yl-thiophen-2-yl)-phenyl]-isonicotinamide]	5.2 nM
Cc1ncsc1-c1ccc(NC(=O)c2c(F)cccc2F)cc1 [Compound 120, 2,6-Difluoro-N-[4-(4-methyl-thiazole-5-yl)-phenyl]-benzamide]	> 1000 nM
Cc1cc(-c2cncnc2)sc1-c1ccc(NC(=O)c2snnc2C)cc1 [Compound 98, 4-Methyl-[1,2,3]thiadiazole-5-carboxylic acid [4-(3-methyl-5-pyrimidin-5-yl-thiophen-2-yl)-phenyl]-amide]	9.3 nM
Cc1cnccc1C(=O)Nc1ccc(-c2sc(-c3ccncc3)cc2C)cc1 [Compound 101]	4 nM

Further lines, results first:

IC50	Structure (SMILES)
106 nM	Cc1nc(N2CCOCC2)sc1-c1ccc(NC(=O)c2c(F)cccc2F)cc1 [Compound 9, 2,6-Difluoro-N-[4-(4-methyl-2-morpholin-4-yl-thiazol-5-yl)-phenyl]-benzamide]
22 nM	Cc1cc(-c2ccno2)sc1-c1ccc(NC(=O)c2cnns2)cc1 [Compound 102, [1,2,3]thiadiazole-5-carboxylic acid [4-(3-methyl-5-isoxazol-5-yl-thiophen-2-yl)-phenyl]-amide]
133 nM	COC(=O)c1nc(C)c(-c2ccc(NC(=O)c3c(F)cccc3F)cc2)s1 [Compound 121, 2,6-Difluoro-N-[4-(4-methyl-2-methoxycarbonyl-thiazol-5-yl)-phenyl]-benzamide]
1 nM	COC(=O)c1cc(-c2ccc(NC(=O)c3c(F)cccc3F)cc2)c(C)s1 [Compound 1, 4-[4-(2,6-Difluoro-benzoylamino)-phenyl]-5-methyl-thiophene-2-carboxylic acid methyl ester]
19 nM	Cc1cc(-c2ccno2)sc1-c1ccc(NCc2ccncc2F)cc1 [Compound 128, (3-Fluoro-pyridin-4-ylmethyl)-[4-(5-isoxazol-5-yl-3-methyl-thiophen-2-yl)-phenyl]-amine]
> 1000 nM	Cc1cc(NC(=O)c2c(F)cccc2F)ccc1-c1nc(C(F)(F)F)cs1 [Compound 91, 2,6-Difluoro-N-[3-methyl-4-(4-trifluoromethyl-thiazole-2-yl)-phenyl]-benzamide]
